Some test systems named below: CAKI-1 renal; HCC-2998 colon; HT29 colon; K-562 leukemia; LOX IMVI melanoma; MALME-3M melanoma; SK-MEL-5 melanoma; SNB-19 CNS; SR leukemia; UACC-257 melanoma.
What all share (assay): growth of human tumour cells (NCI), 48 h

Structures are written as SMILES.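 Exposure lasted 48 hours, with cells grown in 96-well plates and compounds tested at five concentrations. TGI is the concentration that stops growth completely.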

Consider `Cc1cc(C[C@H]2O[C@@H]3OC(C)(C)O[C@@H]3[C@H]3OC(C)(C)O[C@H]32)c2ccccc2n1`, for which the TGI in the test on CAKI-1 renal, with HCC-2998 colon, in the test with HT29 colon, in the test on K-562 leukemia, in the test on LOX IMVI melanoma and with MALME-3M melanoma was above 100 µM throughout. Besides, the TGI with SK-MEL-5 melanoma, in the test on SNB-19 CNS, in the test on SR leukemia and with UACC-257 melanoma was above 100 µM in each case.
Take `Cn1c2ccccc2c2c(=S)c3ccccc3ccc21`: the TGI in the test on CAKI-1 renal, in the test on HCC-2998 colon, in the test on HT29 colon, with K-562 leukemia, in the test on LOX IMVI melanoma and in the test on MALME-3M melanoma was above 100 µM each time. Further, the TGI with SK-MEL-5 melanoma, in the test on SNB-19 CNS, with SR leukemia and in the test with UACC-257 melanoma was above 100 µM in each case.
`O=C1CSC2(CC(/C=C/c3cccs3)=NN2c2cccc(S(=O)(=O)O)c2)N1c1nc2ccccc2s1` (stereo not given): the TGI in the test on CAKI-1 renal, in the test on HCC-2998 colon, in the test on HT29 colon, in the test with K-562 leukemia, with LOX IMVI melanoma and with MALME-3M melanoma was above 100 µM throughout. In addition, the TGI in the test on SK-MEL-5 melanoma, in the test on SNB-19 CNS, in the test on SR leukemia and in the test on UACC-257 melanoma was above 100 µM each time.
Regarding `c1ccc(C2=NOC(c3ccccc3)N2C23CC4CC(CC(C4)C2)C3)cc1` (stereo not given), the TGI with CAKI-1 renal, in the test with HCC-2998 colon, in the test with HT29 colon, in the test on K-562 leukemia, with LOX IMVI melanoma and with MALME-3M melanoma was above 10 µM throughout. In addition, the TGI with SK-MEL-5 melanoma, with SNB-19 CNS, in the test with SR leukemia and with UACC-257 melanoma was above 10 µM in each case.
For `O=C(O)c1cccc(S(=O)(=O)NN2C(=O)CSC2c2ccc(Cl)cc2Cl)c1` (stereo not given), the TGI in the test with CAKI-1 renal, with HCC-2998 colon, in the test with HT29 colon, in the test with K-562 leukemia, in the test with LOX IMVI melanoma and with MALME-3M melanoma was above 100 µM throughout. Moreover, the TGI in the test on SK-MEL-5 melanoma was above 100 µM; in the test with SNB-19 CNS it was above 100 µM; in the test with SR leukemia it was 83.5 µM; in the test with UACC-257 melanoma, above 100 µM.

(Values after PubChem BioAssay (NCI).)
